This is an account of results in patent publication US20240207422A1, “NERVE TARGETING PEPTIDE CONJUGATES AND METHODS OF USE” (Alume Biosciences, Inc., priority 2022, published 2024).

The subject of the assay is excised human nerve tissue. Nature of the assay: Phage display selection on excised human nerve tissue (Nerve2, Nerve3), NextGen sequence counts. The following applies: unique sequence count (relative enrichment); peptides overlapping between Nerve2 and Plated Nerve2. Type of assay: binding. As to the method:
Several m13 phage libraries were constructed expressing randomized variants of a parent peptide (QVPWEEPYYVVKKS-SGGL; SEQ ID NO: 576). In particular, the first 14 amino acids of the parent peptide were randomized using degenerate oligonucleotide synthesis to obtain a diverse set of peptides with a mutation rate of about 50% per residue.
To accomplish this, synthesis was carried out by the XXK codon design approach, where X is any base and K is G or T. To bias synthesis towards the parent sequence, synthesis was carried out at each X position with a mixture of about 70%-85% of the parent nucleotide and 15-30% of the remaining 3 nucleotides. The resulting molecules were inserted into fADL-1e (Antibody Design Laboratories), which is a type 3 phage display vector having a cloning site on the N-terminal side of the full-length gene III protein. The fusion proteins are directed to the periplasm by the PelB leader peptide, which is inserted in the vector […].
Collectively, the phage display libraries used in the screens comprised about 600 million peptides, with sequencing analysis confirming a mutation rate of about 50% per residue.
Phage libraries were independently processed, as follows, with five biological samples: two independent samples of excised human nerve tissue, one sample of a human nerve extract, and two independent samples of human muscle tissue, as follows:
Excised Human Nerve Tissue: For each of the two independent samples, phage were processed through multiple cycles of selection, with representative phage being isolated and sequenced after each selection cycle. Specifically, for selection using human nerve tissue, a sample of […] tissue (2 mm by 2 mm) was washed prior to mixing and incubation with a phage library. After incubation, the mixture (containing mostly intact nerves with phage particles that had variable affinity for nerves) was centrifuged and the nerve pellet washed multiple times with PBS to remove phage with little or no affinity for nerve tissue. The pellet was homogenized and plated for titering and reamplification. Phage that were bound at each round were sequenced. NextGen sequencing of pools after 2, 3 and 4 rounds of selection were used to isolate candidate sequences that were further analyzed using bioinformatics.
NextGen sequencing of pools after 2, 3 and 4 rounds of selection were used to isolate candidate sequences from each of the five samples. These five data sets were then analyzed as described in the next section.
Peptide and vector sequences were translated starting at the first start codon in the nucleotide sequence. […] Trimmed peptides with identical sequences were combined and quantified according to their frequency (count).
Following processing, an R script was written to merge the unique peptide sequences (with counts 6 or greater) from the 5 different data sets to analyze the overlap between nerve and muscle binding activity.
For the single Nerve2, Nerve3, and Plated Nerve2 (pn2) subsets, the number of counts for each group was set at a threshold giving rise to at least 100 peptides. […] As highlighted in yellow in FIG. 1B, the representative group also included 6 unique peptides overlapping between nerve2 and nerve3, 200 unique peptides overlapping between nerve2 and plated nerve2 (at least 60 counts), 4 unique peptides overlapping between nerve3 and plated nerve2. Finally, as highlighted in green in FIG. 1B, the representative group also included […] common to the nerve2, nerve3, and plated nerve2 sets.
91 (HDASIALYDPVLMS) [compound 91] gave a Count of 133.

For 92 (QLPGDVTYNLGHKS) [compound 92], the Count worked out at 133.

The substance 93 (QPTWEQPYHVDRNS) [compound 93] displayed a Count of 131.

Substance 94 (HIPFPGLYSNLDQS) [compound 94] registered a Count of 127.

Substance 95 (DHPWDVRHYAHKKS) [compound 95] displayed a Count of 126.

For the substance 96 (DVPWKESFNIVENS) [compound 96], the Count was 126.

On to 97 (QFARTAPYYVQTEY) [compound 97], for which the Count came to 125.

On to 98 (QNPWQKPYTVMKTS) [compound 98], for which the Count was found to be 123.

The substance 99 (HLSFEEPLYGVKKS) [compound 99] returned a Count of 122.

100 (QFPSGHRVYTGKMT) [compound 100] registered a Count of 122.

As to 101 (YNLYEQPYSVLKRS) [compound 101], the Count was 122.

102 (HLPSQVTHYVITSF) [compound 102] came in with a Count of 115.

For 103 (QVPSHEPFYLGKKY) [compound 103], the Count is given as 114.

With 104 (RVTQGSPVYGENNA) [compound 104], the Count is 114.

For the substance 105 (QIPMEETYSLRKMS) [compound 105], the Count stood at 113.

On to 106 (QIPWEAPSYGATIS) [compound 106], for which the Count came out at 113.

107 (HVGWEQPYYVLRKS) [compound 107] returned a Count of 112.

In turn, 108 (DFATEERRYAVPKY) [compound 108] registered a Count of 111.

For 109 (DVPLVKPHYGAVDS) [compound 109], the Count is reported as 111.

For the substance 110 (QFPSEASHYVVRNS) [compound 110], the Count came out at 111.

Consider 111 (HSRLHETSYVFNKP) [compound 111], for which the Count was determined as 110.

With 112 (HVQRQETDYAAKRI) [compound 112], the Count came out at 110.

In the case of 113 (NVLSEEPSSRDANV) [compound 113], the Count stood at 110.

114 (HLPFEAPYYAVKRS) [compound 114] returned a Count of 109.

Take 115 (QLPGEEPTYVGSNS) [compound 115]: the Count amounted to 109.

With 116 (EVPVGDLSYVGKKY) [compound 116], the Count was 108.

Take 117 (QFPLVQPNYLVEMP) [compound 117]: the Count worked out at 108.

As for 118 (HVPGQDSYNVVNKF) [compound 118], the Count is recorded as 107.

Regarding 119 (HVTYTEASVYKRTF) [compound 119], the Count is reported as 107.

120 (QLEWEEPHYAARKS) [compound 120] returned a Count of 107.

In turn, 121 (HYQSVKSYSVQKKI) [compound 121] came in with a Count of 105.

In turn, 122 (QLTSAEASYVGKQS) [compound 122] displayed a Count of 105.

123 (HRPWEEPYYVAKQS) [compound 123] returned a Count of 104.

With 124 (LFASENPYNVKSKS) [compound 124], the Count is reported as 103.

In turn, 125 (SVPGEDPSQFGKTP) [compound 125] gave a Count of 103.

The substance 126 (HVPSEEPYKLDEQS) [compound 126] had a Count of 102.

With 127 (QFRIEDSYDVANQS) [compound 127], the Count is 102.

The substance 128 (QIYWHESNYLVTKS) [compound 128] displayed a Count of 102.

The substance 129 (HIPGDETSYVMKKY) [compound 129] returned a Count of 100.

130 (QSLSEEPQYVVTPS) [compound 130] showed a Count of 98.

131 (HILLEEPSNVLNKR) [compound 131] came in with a Count of 96.

For 132 (TLPVYVPYYVVNNT) [compound 132], the Count stood at 96.

133 (HMRSEQPYYGGKVS) [compound 133] came in with a Count of 95.

The substance 134 (EVPRTERNFVVKNT) [compound 134] yielded a Count of 94.

In the case of 135 (HGAWEETHYVVIQS) [compound 135], the Count came to 94.

For the substance 136 (HGRSVESYDLVNKR) [compound 136], the Count was found to be 94.

137 (QVTWGEPQYVVYKS) [compound 137] yielded a Count of 94.

Substance 138 (QLPSGEPYSFVKES) [compound 138] gave a Count of 93.

139 (DVPLEDTYYRVKKY) [compound 139] came in with a Count of 91.

In the case of 140 (HVPFDKSSHLVKKY) [compound 140], the Count was determined as 90.

With 141 (QFAWDSPYSRGKKT) [compound 141], the Count amounted to 90.

142 (HVTWQQTKYVTNRS) [compound 142]: the Count was 89.

143 (RFPLEEPNYFQTKS) [compound 143] registered a Count of 89.

As to 144 (HVTWGKTYHLVTDS) [compound 144], the Count is reported as 88.

For the substance 145 (LVPWEEPGYFQNTS) [compound 145], the Count stood at 88.

In turn, 146 (QYPREEPRHALKMS) [compound 146] had a Count of 88.

The substance 147 (NVTFEQSSYVVTSP) [compound 147] gave a Count of 87.

Turning to 148 (YVTSESPYYVHGQP) [compound 148], the Count amounted to 87.

The substance 149 (HVSGTKPYHLVKKS) [compound 149] registered a Count of 86.

In turn, 150 (EDVLHNAYHVETQF) [compound 150] yielded a Count of 85.

Substance 151 (QFAWEHRDYVLQRS) [compound 151] had a Count of 85.

On to 152 (QVLWEERLYVVKNS) [compound 152], for which the Count is 83.

As for 153 (RSTWEQSYTIVKES) [compound 153], the Count amounted to 83.

Regarding 154 (QMASKEPNYPVKNS) [compound 154], the Count is reported as 82.

155 (QNPAEEQYIVWNNS) [compound 155] showed a Count of 82.

Take 156 (SHPWEKQYDVFNNS) [compound 156]: the Count is 81.

In the case of 157 (DVPWEEPYHVGNWR) [compound 157], the Count came to 80.

Substance 158 (HVASEQPYYGVNRP) [compound 158] came in with a Count of 80.

As to 159 (HVLGEEPYYFVQHV) [compound 159], the Count came to 80.

Consider 160 (QEPWDEFSYNVNAL) [compound 160], for which the Count is on record as 80.

With 161 (QFRSGEAYVVVQTS) [compound 161], the Count was determined as 80.

Consider 162 (QNAFSKPYNGVKPS) [compound 162], for which the Count is given as 80.

On to 163 (QIESGEPYHDQKHP) [compound 163], for which the Count was determined as 79.

In turn, 164 (QVRWPEQYYVVNMG) [compound 164] registered a Count of 79.

Turning to 165 (QYAREEPYYFMSYK) [compound 165], the Count is on record as 79.

166 (QIPCQSDHNVVTNC) [compound 166] registered a Count of 78.

With 167 (DRLSDEPFKGMTHS) [compound 167], the Count was 77.

For 168 (DVRWSDPHDRITKS) [compound 168], the Count is 77.

Substance 169 (HLPWEGPEYLGKKS) [compound 169] registered a Count of 77.

On to 170 (HVPRDEPQSFVHRS) [compound 170], for which the Count turned out to be 77.

Substance 171 (QFSSAEAYTVVNES) [compound 171] came in with a Count of 77.

In turn, 172 (QIPSHSPYYALNSS) [compound 172] gave a Count of 77.

The substance 173 (QQRLSASYQHVIKS) [compound 173] came in with a Count of 77.

174 (HFEGEDLYDRVKSR) [compound 174]: the Count is reported as 76.

In turn, 175 (HVTLEKPYDVATKS) [compound 175] showed a Count of 76.

176 (QLPGEHPYYPIKKP) [compound 176] returned a Count of 76.

Regarding 177 (EALWYKHYYGVHKT) [compound 177], the Count was 75.

As to 178 (HVVRHYPPHFVHKS) [compound 178], the Count is recorded as 75.

For 179 (LIPSEERSYAVINT) [compound 179], the Count is 75.
